Reference: PubChem BioAssay AID336 (DTP/NCI, 2004)
Several values for one entry are separate records, joined by “and”; a condition that tells them apart may be missing. Equal values may be shown once. Toxic doses and inconclusive results are not listed.

Test system: BDF1 mice, P388/VCR leukemia ip, median survival T/C
Test: NCI In Vivo Anticancer Drug Screen. Data for tumor model P388 Leukemia resistant to Vincristine; NSC 67574 (intraperitoneal) in B6D2F1 (BDF1) mice
Settings: endpoint: median survival time, higher = longer survival
Protocol: The antitumor activity of compounds was measured in mice bearing transplantable tumors. Survival or tumor size were measured and the results are expressed as the measurement made in the treated group (T) divided by the measurement made in the vehicle treated control group (C). The tumor model used in this assay is P388 Leukemia resistant to Vincristine; NSC 67574 (intraperitoneal) in B6D2F1 (BDF1) mice

[1] = dose: 2.4 mg/kg/injection, schedule: Q04DX003 (ip), vehicle: saline
[2] = dose: 4.0 mg/kg/injection, schedule: Q04DX003 (ip), vehicle: saline
[3] = dose: 12.0 mg/kg/injection, schedule: Q01DX010 (ip), vehicle: saline
[4] = dose: 18.0 mg/kg/injection, schedule: Q01DX010 (ip), vehicle: saline
[5] = dose: 40.0 mg/kg/injection, schedule: Q01DX010 (ip), vehicle: saline
[6] = dose: 8.0 mg/kg/injection, schedule: Q01DX010 (ip), vehicle: saline

O=c1cnn(C2OC(CO)C(O)C2O)c(=O)[nH]1 (stereo unspecified)
T/C (dose: 100.0 mg/kg/injection, schedule: Q01DX010 (ip), vehicle: saline): 107 % of control
T/C (dose: 200.0 mg/kg/injection, schedule: Q01DX010 (ip), vehicle: saline): 114 % of control
T/C (dose: 400.0 mg/kg/injection, schedule: Q01DX010 (ip), vehicle: saline): 115 % of control and 121 % of control
T/C (dose: 800.0 mg/kg/injection, schedule: Q01DX010 (ip), vehicle: saline): 123 % of control
T/C (dose: 1600.0 mg/kg/injection, schedule: Q01DX010 (ip), vehicle: saline): 88 % of control

COc1cccc2c1C(=O)c1c(O)c3c(c(O)c1C2=O)C[C@@](O)(C(=O)CO)C[C@@H]3OC1CC(N)C(O)C(C)O1 (stereo partly specified)
T/C (dose: 1.44 mg/kg/injection, schedule: Q04DX003 (ip), vehicle: saline): 172 % of control
T/C (dose: 1.44 mg/kg/injection, schedule: Q04DX003 (ip), vehicle: water): 168 % of control
T/C [1]: 188 % of control
T/C (dose: 2.4 mg/kg/injection, schedule: Q04DX003 (ip), vehicle: water): 159 % of control and 200 % of control
T/C [2]: 169 % of control
T/C (dose: 4.0 mg/kg/injection, schedule: Q04DX003 (ip), vehicle: water): 155 % of control and 168 % of control
T/C (dose: 6.67 mg/kg/injection, schedule: Q04DX003 (ip), vehicle: saline): 182 % of control
T/C (dose: 6.67 mg/kg/injection, schedule: Q04DX003 (ip), vehicle: water): 100 % of control

Nc1nc(N)c2nc(CNc3ccc(C(=O)NC(CCC(=O)O)C(=O)O)cc3)cnc2n1 (stereo unspecified)
T/C (dose: 25.0 micrograms/kg/injection, schedule: Q01DX010 (ip), vehicle: other): 118 % of control
T/C (dose: 50.0 micrograms/kg/injection, schedule: Q01DX010 (ip), vehicle: other): 114 % of control
T/C (dose: 200.0 micrograms/kg/injection, schedule: Q01DX010 (ip), vehicle: other): 166 % of control and 175 % of control

Nc1cc(C(=O)Nc2ccc(C3=NCCN3)cc2)cc(C(=O)Nc2ccc(C3=NCCN3)cc2)c1
T/C (dose: 32.0 mg/kg/injection, schedule: Q01DX010 (ip), vehicle: saline): 156 % of control
T/C (dose: 64.0 mg/kg/injection, schedule: Q01DX010 (ip), vehicle: saline): 165 % of control

CC1CN=C(c2ccc(NC(=O)c3cccc(C(=O)Nc4ccc(C5=NCC(C)N5)cc4)c3)cc2)N1 (stereo unspecified)
T/C [3]: 104 % of control
T/C [4]: 117 % of control
T/C (dose: 27.0 mg/kg/injection, schedule: Q01DX010 (ip), vehicle: saline): 104 % of control
T/C [5]: 108 % of control

COc1cc2c[n+](C)c3c4cc5c(cc4ccc3c2cc1OC)OCO5
T/C (dose: 43.2 mg/kg/injection, schedule: Q04DX003 (ip), vehicle: Klucel (hydroxypropylcellulose) (HPC)): 106 % of control
T/C (dose: 72.0 mg/kg/injection, schedule: Q04DX003 (ip), vehicle: Klucel (hydroxypropylcellulose) (HPC)): 108 % of control
T/C (dose: 120.0 mg/kg/injection, schedule: Q04DX003 (ip), vehicle: Klucel (hydroxypropylcellulose) (HPC)): 106 % of control
T/C (dose: 200.0 mg/kg/injection, schedule: Q04DX003 (ip), vehicle: Klucel (hydroxypropylcellulose) (HPC)): 109 % of control

CCCNC(=NC)c1ccc(NC(=O)c2ccc(C(=O)Nc3ccc(C(=NC)NCCC)cc3)cc2)cc1
T/C (dose: 5.2 mg/kg/injection, schedule: Q01DX010 (ip), vehicle: saline): 113 % of control
T/C [6]: 113 % of control
T/C [3]: 118 % of control
T/C [4]: 100 % of control

COC(=O)[C@@]12OC[C@]34[C@H]([C@@H](O)[C@@H]1O)[C@@]1(C)CC(=O)C(O)=C(C)[C@@H]1C[C@H]3OC(=O)[C@H](OC(=O)/C=C(\C)C(C)C)[C@@H]24
T/C (dose: 389.0 micrograms/kg/injection, schedule: Q01DX004 (ip), vehicle: saline + alcohol): 103 % of control
T/C (dose: 432.0 micrograms/kg/injection, schedule: Q01DX009 (ip), vehicle: saline + alcohol): 98 % of control
T/C (dose: 648.0 micrograms/kg/injection, schedule: Q01DX004 (ip), vehicle: saline + alcohol): 109 % of control
T/C (dose: 720.0 micrograms/kg/injection, schedule: Q01DX009 (ip), vehicle: saline + alcohol): 100 % of control

C1CN1c1nc(N2CC2)nc(N2CC2)n1
T/C (dose: 0.13 mg/kg/injection, schedule: Q01DX010 (ip), vehicle: saline): 88 % of control and 108 % of control
T/C (dose: 0.5 mg/kg/injection, schedule: Q01DX010 (ip), vehicle: saline): 152 % of control and 228 % of control

O=C(Nc1ccc(C2=NCCN2)cc1)c1ccc(C(=O)Nc2ccc(C3=NCCN3)cc2)c([N+](=O)[O-])c1
T/C (dose: 6.0 mg/kg/injection, schedule: Q01DX010 (ip), vehicle: saline): 103 % of control
T/C [6]: 114 % of control
T/C [3]: 111 % of control
T/C [4]: 104 % of control and 111 % of control

Nc1nc(=S)c2[nH]cnc2[nH]1
T/C (dose: 1.25 mg/kg/injection, schedule: Q01DX010 (ip), vehicle: other): 165 % of control
T/C (dose: 5.0 mg/kg/injection, schedule: Q01DX010 (ip), vehicle: other): 103 % of control and 107 % of control

N#[N+]c1cnc([O-])[nH]c1=O
T/C (dose: 5.0 mg/kg/injection, schedule: Q01DX010 (ip), vehicle: saline): 156 % of control

CC(=O)Nc1ccc2nc3ccc(NC(C)=O)cc3[n+](-c3ccccc3)c2c1
T/C (dose: 25.0 mg/kg/injection, schedule: Q01DX010 (ip), vehicle: saline): 91 % of control
T/C (dose: 50.0 mg/kg/injection, schedule: Q01DX010 (ip), vehicle: saline): 87 % of control

O=C1N[C@@H]([C@H]2CC[C@H](Cl)CN2)C(=O)N[C@H]1[C@H]1CC[C@H](Cl)CN1
T/C [1]: 212 % of control
T/C [2]: 225 % of control

O=C(Nc1cccc(NC(=O)Nc2cccc(C3=NCCN3)c2)c1)Nc1cccc(C2=NCCN2)c1
T/C [5]: 154 % of control
T/C (dose: 90.0 mg/kg/injection, schedule: Q01DX010 (ip), vehicle: saline): 118 % of control

CC/C(=C(/CC)c1ccc(O)cc1)c1ccc(O)cc1
T/C (dose: 12.5 mg/kg/injection, schedule: Q01DX010 (sc), vehicle: steriod suspending solution): 88 % of control and 111 % of control
T/C (dose: 25.0 mg/kg/injection, schedule: Q01DX010 (sc), vehicle: steriod suspending solution): 103 % of control
T/C (dose: 50.0 mg/kg/injection, schedule: Q01DX010 (sc), vehicle: steriod suspending solution): 100 % of control
T/C (dose: 100.0 mg/kg/injection, schedule: Q01DX010 (sc), vehicle: steriod suspending solution): 103 % of control

CS(=O)(=O)OCCCl
T/C (dose: 37.5 mg/kg/injection, schedule: Q01DX010 (ip), vehicle: saline): 95 % of control and 100 % of control
T/C (dose: 75.0 mg/kg/injection, schedule: Q01DX010 (ip), vehicle: saline): 95 % of control and 100 % of control

CC(C)[C@](O)(C(=O)OCC1=CC[N+]2([O-])CC[C@@H](O)[C@@H]12)[C@H](C)O (stereo partly specified)
T/C (dose: 130.0 mg/kg/injection, schedule: Q01DX009 (ip), vehicle: water): 98 % of control
T/C (dose: 216.0 mg/kg/injection, schedule: Q01DX009 (ip), vehicle: water): 106 % of control
T/C (dose: 360.0 mg/kg/injection, schedule: Q01DX009 (ip), vehicle: water): 113 % of control
T/C (dose: 600.0 mg/kg/injection, schedule: Q01DX009 (ip), vehicle: water): 107 % of control

CC1CN=C(c2ccc(NC(=O)c3ccc(C(=O)Nc4ccc(C5=NCC(C)N5)cc4)cc3)cc2)N1 (stereo unspecified)
T/C (dose: 22.0 mg/kg/injection, schedule: Q01DX010 (ip), vehicle: saline): 113 % of control
T/C (dose: 33.0 mg/kg/injection, schedule: Q01DX010 (ip), vehicle: saline): 109 % of control

CC(=O)O[C@H]1C(=O)[C@@]2(C)[C@H]([C@H](OC(=O)c3ccccc3)[C@]3(O)C[C@H](OC(=O)[C@H](O)[C@@H](NC(=O)c4ccccc4)c4ccccc4)C(C)=C1C3(C)C)[C@]1(OC(C)=O)CO[C@@H]1C[C@@H]2O
T/C (dose: 21.6 mg/kg/injection, schedule: Q04DX003 (ip), vehicle: Klucel (hydroxypropylcellulose) (HPC)): 98 % of control
T/C (dose: 36.0 mg/kg/injection, schedule: Q04DX003 (ip), vehicle: Klucel (hydroxypropylcellulose) (HPC)): 93 % of control
T/C (dose: 60.0 mg/kg/injection, schedule: Q04DX003 (ip), vehicle: Klucel (hydroxypropylcellulose) (HPC)): 87 % of control

CCC1(O)CC2CN(CCc3c([nH]c4ccccc34)C(C(=O)OC)(c3cc4c(cc3OC)N(C)C3C(O)(C(=O)NCCO)C(O)C5(CC)C=CCN6CCC43C65)C2)C1 (stereo unspecified)
T/C (dose: 500.0 micrograms/kg/injection, schedule: Q04DX003 (ip), vehicle: saline): 107 % of control
T/C (dose: 1000.0 micrograms/kg/injection, schedule: Q04DX003 (ip), vehicle: saline): 106 % of control
T/C (dose: 2000.0 micrograms/kg/injection, schedule: Q04DX003 (ip), vehicle: saline): 105 % of control
T/C (dose: 4000.0 micrograms/kg/injection, schedule: Q04DX003 (ip), vehicle: saline): 108 % of control

O=C(Nc1ccc(NC2=NCCN2)cc1)c1ccc(C(=O)Nc2ccc(NC3=NCCN3)cc2)cc1
T/C (dose: 2.0 mg/kg/injection, schedule: Q01DX010 (ip), vehicle: saline): 121 % of control
T/C (dose: 4.0 mg/kg/injection, schedule: Q01DX010 (ip), vehicle: saline): 192 % of control
T/C [6]: 171 % of control and 211 % of control
